# According to patent publication US20240361317A1, “PROBES BASED ON VOLATILE ORGANIC COMPOUNDS AND USES THEREOF FOR THE DIAGNOSIS AND PROGNOSIS OF PATHOLOGICAL CONDITIONS” (Centre National de la Recherche Scientifique, priority 2021, published 2024):
# Columns and labels:
# [1] = molecular target: T1, β-D-galactosidase (Homo sapiens, UniProt P16278); experiment: Plasma protocol: labeled ethanol released in headspace of plasma after adding probe; assay type: biochemical; details: for discernment between healthy patients and cancer patients: cocktail of 4 probes, plasma of breast and lung cancer patients vs 4 healthy
# T1 construct: from tissue; host or cells: human blood plasma
# T1 sequence (P16278 29-677): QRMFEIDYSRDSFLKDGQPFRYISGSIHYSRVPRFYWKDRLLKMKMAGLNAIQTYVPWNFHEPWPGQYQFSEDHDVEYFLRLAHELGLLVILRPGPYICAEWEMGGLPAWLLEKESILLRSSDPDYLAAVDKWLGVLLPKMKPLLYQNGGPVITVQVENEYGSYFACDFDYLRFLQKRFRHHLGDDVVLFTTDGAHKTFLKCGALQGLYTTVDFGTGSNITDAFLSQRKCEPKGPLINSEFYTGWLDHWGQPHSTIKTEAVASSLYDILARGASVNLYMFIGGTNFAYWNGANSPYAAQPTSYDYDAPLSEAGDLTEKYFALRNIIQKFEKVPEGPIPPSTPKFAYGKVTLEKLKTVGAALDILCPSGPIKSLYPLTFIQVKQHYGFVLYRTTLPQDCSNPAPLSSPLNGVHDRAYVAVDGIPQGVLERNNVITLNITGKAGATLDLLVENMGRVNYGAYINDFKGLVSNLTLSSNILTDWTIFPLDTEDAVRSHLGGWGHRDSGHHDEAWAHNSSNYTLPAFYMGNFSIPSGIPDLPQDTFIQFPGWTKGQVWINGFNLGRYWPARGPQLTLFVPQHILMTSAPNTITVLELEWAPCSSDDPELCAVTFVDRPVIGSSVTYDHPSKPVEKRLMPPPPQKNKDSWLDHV
# Procedure: (§1) The plasma (approximately […]) is extracted and stored at −20° C. until analysis. An aliquot of 25 μL of plasma is sampled and inserted into a […] with an insert. This biological sample is added to 50 μL of acetate buffer solution (pH 5), protease inhibitor (1×) and 25 μL probe D5-ethyl-β-D-glucuronide at […]. After hermetic closure and agitation to the vortex of the vial, an SPME (SPME in semi-polar phase of the Car/PDMS, 1 cm long and 75 μm thick type with a 24 ga needle; Supelco) of the gas phase above the sample of a duration of 30 mi is carried out after 2 h, 4 h and 7 h of reaction. Each kinetic point requires a vial reaction, and is carried out in duplicate. The VOCs trapped on the SPME fiber are then analyzed by G-TQMS. GC-TMS detection of the ethanol isotopes (thus including ethanol-D5) is carried out with gas chromatography coupled to a triple quadrupole equipped with an E1 source (TSQ 9000, Thermo Fisher Scientific). The system is controlled by the software TSQ 9000 and the results are analyzed with the Xcalibur software (Thermo Fisher Scientific).
# (§2) In order to verify the diagnostic efficacy of this cocktail, it was tested on samples of plasma taken from 4 patients suffering from breast cancer and 3 patients with lung cancer. These patients were diagnosed, but had at the time of sampling not yet received treatment suited to their pathological condition.
# After adding the 4 probes (according to the above protocol), the quantity of the 4 isotopes of the ethanol released above the samples of the patients was measured over time. The responses of each isotope were compared with those obtained when the cocktail was added to plasmas of 4 healthy patients. An experimental blank was also carried out each day of analysis. […]
# (§3) According to the plasma protocol described above, the probes were used to detect the six enzymatic activities in these samples. […] The VOCs trapped on the SPME fiber are then analyzed by GC-TQMS according to the parameters defined in Tables 4 and 5. […]
# [2] = molecular target: T2, β-glucuronidase (Homo sapiens, UniProt P08236); experiment: as above; assay type: biochemical; details: Ethanol-D5; Cocktail 1; 5·10^−4/5·10^−5 mol·L^−1; Splitless
# T2 construct: from tissue; host or cells: human blood plasma
# T2 sequence (P08236 23-651): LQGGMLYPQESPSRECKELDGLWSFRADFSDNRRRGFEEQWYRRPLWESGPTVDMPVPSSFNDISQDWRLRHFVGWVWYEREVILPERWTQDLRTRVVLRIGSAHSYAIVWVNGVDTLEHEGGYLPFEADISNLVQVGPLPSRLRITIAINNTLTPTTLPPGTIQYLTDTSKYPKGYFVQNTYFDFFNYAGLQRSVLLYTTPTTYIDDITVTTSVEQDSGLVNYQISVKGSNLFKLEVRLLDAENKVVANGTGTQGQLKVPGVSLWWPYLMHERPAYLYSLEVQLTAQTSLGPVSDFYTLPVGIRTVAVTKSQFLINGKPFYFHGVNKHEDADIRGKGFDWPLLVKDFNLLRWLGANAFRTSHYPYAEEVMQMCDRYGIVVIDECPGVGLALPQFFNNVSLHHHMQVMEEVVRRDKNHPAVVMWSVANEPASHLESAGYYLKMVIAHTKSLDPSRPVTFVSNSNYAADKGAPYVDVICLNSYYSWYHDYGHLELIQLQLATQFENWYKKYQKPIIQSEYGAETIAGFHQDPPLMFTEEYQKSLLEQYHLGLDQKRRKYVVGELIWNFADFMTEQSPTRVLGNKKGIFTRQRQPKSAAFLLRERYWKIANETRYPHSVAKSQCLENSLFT
# Procedure: as §1
# Blood samples were taken by the caregiver associated with the oncological service, then collected and pretreated with the CIC. This study included samples of plasma taken from 11 patients suffering from breast cancer and 11 patients suffering from lung cancer.
# These patients were diagnosed, but had at the time of sampling not yet received treatment. Their response was compared to that obtained from the plasma of 4 healthy patients. The results were compared to an experimental blank wherein the probe was added, but the enzyme was not present (FIG. 3). […]
# After adding the 4 probes (according to the above protocol), the quantity of the 4 isotopes of the ethanol released above the samples of the patients was measured over time. […]
# as §3
# [3] = tested on: N-acetyl-glucosaminidase; experiment: as above; assay type: biochemical, human
# Procedure: as §1, §2
# (§4) After adding the 4 probes (according to the above protocol), the quantity of the 4 isotopes of the ethanol released above the samples of the patients was measured over time. The responses of each isotope were compared with those obtained when the cocktail was added to plasmas of 4 healthy patients. An experimental blank was also carried out each day of analysis. These blanks correspond to negative controls wherein the cocktail was added, whereas none of the 4 enzymes was present therein (FIG. 9).
# (§5) According to the plasma protocol described above, the probes were used to detect the six enzymatic activities in these samples. To summarize, an aliquot of 25 μL of plasma will be sampled and inserted into a 2 mL vial with an insert. This biological sample was added from 61.4 μL buffer solution (pH 5), 3.6 μL of protease inhibitor (1×) and 10 μL of one or the other of the cocktails. After hermetic closure and agitation to the vortex of the vial, an SPME (SPME in semi-polar phase of the Car/PDMS, 1 cm long and 75 μm thick type with a 24 ga needle, Supelco) of the gas phase above the sample of a duration of 30 min will be carried out after 2 h, 4 h and 7 h of reaction. Each kinetic point requires a vial reaction, and was carried out in duplicate. The VOCs trapped on the SPME fiber are then analyzed by GC-TQMS according to the parameters defined in Tables 4 and 5. […]
# [4] = tested on: α-L-fucosidase; experiment: as above; assay type: biochemical, human
# Procedure: as §1, §2, §4, §5
# [5] = tested on: KB tumors (tumor xenograft, tumor cells of the nasopharynx KB); experiment: In vivo test of cocktail of 4 probes: ethanol isotopes exhaled after i.v. injection; design: species or system mouse; details: 15 days after implantation; 1 h after i.v. injection
# Procedure: In the context of this study, the quantity of 4 expired isotopes by mouse models carrying a tumor xenograft (tumor cells of the nasopharynx KB; n=6) was compared to that exhaled by healthy animals (n=6) after i.v. injection of the cocktail.
# The concentration of the 4 probes to be injected was determined beforehand according to a precise experimental plan having the objective of determining the amount of each probe inducing a minimum ethanol response in healthy animals (signal reaching a low or even zero basal level). In this context, the healthy animals received increasing doses of the 4 probes ([…] at 100 μg·kg^−1). The animals were then placed in a hermetic cage for 1 h. The amount of each ethanol isotope present in the breath of the animals was then measured for 30 min via an SPME sample, then a GC-TQMS analysis.
# Once the i.v. doses are set, the cocktail was injected into healthy mice and diseased mice after 12 and then 15 days of implantation of the xenograft. The amount of the ethanol isotopes exhaled by the animals was measured 1 h after injection of the cocktail (FIG. 10). A negative control on two mice (healthy and diseased) was carried out. This control consisted of measuring the quantity of 4 isotopes of ethanol in the air surrounding the mice which had not received the cocktail. Ethanol-D5, ethanol-D4 and ethanol-^13CD5 were not detected. […]
# [6] = molecular target: T2, β-glucuronidase; experiment: Reference method: hydrolysis of para-nitrophenol glucuronide, UV detection at 400 nm, on patient plasma; assay type: biochemical; details: plasma of cancer and healthy patients
# Text: The limit of detection of the enzyme with the probe is between […] (signal to noise 9) and […] (signal to noise 37), which leads to a minimum quantity of detectable enzyme equal to 1.10^−18 mol. This LOD is 100 times lower than the threshold value obtained according to the reference detection method of this same enzyme (Li et al., 2018, Biotechnology Letters, 40, 11 1-118; Xiao et al., 2020, RSC Advances, 10, 22966). This method corresponds to the hydrolysis of para-nitrophenol glucuronide. It was carried out in acetate buffer […], followed by UV detection at 400 nm of the para-nitrophenol (FIG. 2).
# Finally, these same plasma samples were tested with the reference method targeting […] (UV detection in the presence of para-nitrophenol; protocol described page 5).
# [7] = molecular target: β-glucuronidase (Escherichia coli, UniProt P05804); experiment: Specificity study: hydrolysis of probes by the enzyme; assay type: biochemical
# Procedure: (§6) The detection performances of this compound in the presence of ethanol and ethanol-D5 were then verified. […] The detection ranges of ethanol-D5 and ethanol-^13C-D5 were then carried out under SPME sampling conditions developed for biological samples (30 min of sampling at 30° C.). The two isotopes were present in mixtures in solution. The limits of detection obtained are respectively […]. The SPME-GC-TQMS method therefore allows a sharp differentiation of the two isotopes according to their mass fragmentation. An experimental study was then carried out in order to evaluate the affinity of the D5-ethyl-β-D-glucuronide and ^13C-D5-ethyl-N-acetylglucosamine for their respective enzyme (β-glucuronidase and N-acetyl glucosaminidase). For this, the efficacy of hydrolysis of each of these enzymes was studied in the presence of their respective probe (FIG. 6) then in the presence of the substrate probe of its partner (FIG. 7). […] In the presence of the two substrates, each enzyme gives a signal only for the probe specific to it (FIG. 8).
# [8] = tested on: N-acetyl glucosaminidase; experiment: as above; assay type: biochemical
# Procedure: as §6
# Sequence of β-glucuronidase (Escherichia coli, UniProt P05804) (P05804 whole entry, the tested form may be a part): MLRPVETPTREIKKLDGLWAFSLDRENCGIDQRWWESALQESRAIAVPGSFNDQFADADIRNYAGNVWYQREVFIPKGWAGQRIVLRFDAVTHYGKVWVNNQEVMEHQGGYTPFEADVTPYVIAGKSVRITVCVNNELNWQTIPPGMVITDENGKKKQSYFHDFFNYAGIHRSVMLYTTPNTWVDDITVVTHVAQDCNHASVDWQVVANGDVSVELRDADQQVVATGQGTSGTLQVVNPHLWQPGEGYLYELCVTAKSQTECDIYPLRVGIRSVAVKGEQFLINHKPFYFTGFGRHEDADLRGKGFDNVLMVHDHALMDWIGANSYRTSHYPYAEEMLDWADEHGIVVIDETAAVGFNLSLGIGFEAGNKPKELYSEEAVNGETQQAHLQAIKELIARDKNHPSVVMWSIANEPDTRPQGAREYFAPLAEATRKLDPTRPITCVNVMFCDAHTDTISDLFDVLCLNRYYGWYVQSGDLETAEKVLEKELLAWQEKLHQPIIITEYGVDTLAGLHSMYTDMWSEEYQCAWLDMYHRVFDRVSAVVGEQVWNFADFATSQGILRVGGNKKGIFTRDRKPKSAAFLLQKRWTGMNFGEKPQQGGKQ
molecule,measurement,setting,value
CCC[C@@H]1C[C@H](CC)[C@H](C)[C@H](C)[C@H]1C,Plasma response range (u.a.),"[1]; Ethanol-D2, Cocktail 1, 10^−3/10^−4 mol·L^−1, Splitless",2000-16000 u.a.
CCC[C@@H]1C[C@H](C(C)C)[C@@H](C)[C@H](C)[C@H]1C,Plasma response range (u.a.),[2],1000-35000 u.a.
C=C(C)C[C@@H]1[C@@H](CCC)C[C@H](CC)[C@@H](C)[C@@H]1C,Plasma response range (u.a.),"[3]; Ethanol-13CD5, Cocktail 2, 10^−3/10^−4 mol·L^−1, Split 1:15",10000-300000 u.a.
CCC[C@@H]1C[C@H](C)[C@@H](C)[C@@H](C)[C@@H]1C,Plasma response range (u.a.),"[4]; Ethanol-D4, Cocktail 3, 10^−3/10^−4 mol·L^−1, Splitless",5000-230000 u.a.
[2H]C([2H])(C)O[C@@H]1O[C@H](CO)[C@H](O)[C@H](O)[C@H]1O [D2-ethyl-β-D-galactopyranoside],"activation of probe in the microenvironment of KB (nasopharyngeal) tumors, release of ethanol isotope in exhaled air",[5],activated
same,discernment between healthy patients and cancer patients,[1],does not make it possible to discern healthy patients from cancer patients
same,discernment between healthy patients and cancer patients,[1]; listed as D2-ethyl-β-d-galactopyranoside,does not make it possible to differentiate healthy patients from breast cancer or lung cancer patients
[2H]C(O[C@@H]1O[C@@H](C)[C@@H](O)[C@@H](O)[C@@H]1O)C([2H])([2H])[2H] (stereo partly drawn) [D4-ethyl-1-α-L-fucopyranoside],discernment between healthy patients and cancer patients,"[4]; cocktail of 4 probes, plasma of breast and lung cancer patients vs healthy",allow clear discernment between healthy patients and cancer patients
O=C(O)[C@H]1O[C@@H](Oc2ccc([N+](=O)[O-])cc2)[C@H](O)[C@@H](O)[C@@H]1O [para-nitrophenol glucuronide],detection of the enzyme in the same plasma samples by the reference method,[6],not detected in any of the samples
^13C-D5-ethyl-N-acetylglucosamide [^13C-D5-ethyl-N-acetylglucosamine],hydrolysis of probe by β-glucuronidase (labeled ethanol signal),[7],does not hydrolysis
same,hydrolysis of probe by N-acetyl glucosaminidase (labeled ethanol signal),[8],has hydrolyzed its own probe
same,discernment between healthy patients and cancer patients,"[3]; cocktail of 4 probes, plasma of breast and lung cancer patients vs 4 healthy",allow clear discernment between healthy patients and cancer patients
